Measured values from ChEMBL document CHEMBL1201862, “PubChem BioAssay data set” (2004).
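In this assay, cells in 96-well plates receive the compound at five concentrations for 48 hours. Endpoints are linearly interpolated between the surrounding concentrations. Here, GI50 denotes the concentration required for 50% inhibition of growth.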 The source made the active and inactive calls. Cut-off read from the data, not from the text of the source: active = GI50 up to about 1.1 µM and inactive = higher.

Columns and labels:
Assay in all cases: NCI-60 cell line screen, 48 h
BT-549 = system: BT-549
T47D = system: T47D
MDA-N = system: MDA-N
DMS-273 = system: DMS-273
LXFL 529 = system: LXFL 529
SNB-78 = system: SNB-78
KM-20L2 = system: KM-20L2
XF498 = system: XF498

SMILES	GI50 (BT-549)	GI50 (T47D)	GI50 (MDA-N)	GI50 (DMS-273)	GI50 (LXFL 529)	GI50 (SNB-78)	GI50 (KM-20L2)	GI50 (XF498)
Cc1ccc(OCC2OC(n3cnc4nc(N)nc(Cl)c43)CC2Oc2ccc(C)cc2)cc1 (stereo unspecified)	22.5 µM (inactive)	14.9 µM (inactive)	11.9 µM (inactive)	–	–	–	–	–
CN(CCC#N)c1ccc(/C=C2\SC(=S)NC2=O)cc1	21.7 µM (inactive)	51.2 µM (inactive)	53.6 µM (inactive)	–	–	–	–	–
C=CCN(c1cc(OC)c2[nH]c(C(=O)O)c(C)c2c1[N+](=O)[O-])S(C)(=O)=O	> 100 µM (inactive)	> 100 µM (inactive)	> 100 µM (inactive)	–	–	–	–	–
CC(=O)Nc1ccc2[nH]c(C(=O)N3CC(CCl)c4c3cc([N+](=O)[O-])c3ccccc43)cc2c1 (stereo unspecified)	3.87 µM (inactive)	2.77 µM (inactive)	> 57.4 µM (inactive)	–	–	–	–	–
O=C(c1cccs1)N(C(=S)N1CCN(c2ccccc2)CC1)C1CCCCC1	–	–	–	> 100 µM (inactive)	> 100 µM (inactive)	> 100 µM (inactive)	> 100 µM (inactive)	–
O=C1OC(c2ccccc2)=N/C1=C\c1ccc([N+](=O)[O-])cc1	15.3 µM (inactive)	22.3 µM (inactive)	> 100 µM (inactive)	–	–	–	–	–
COC1/C=C/C(C)C(OC)CC(O)/C=C/C(C)C(C(C)C(OC)C(C)CCC(=O)C(C)C(C/C=C/N(C)C=O)OC)OC(=O)/C=C/C=C(\C)CC(OC)C(OC)C2=CC(=O)O[C@@H](C(C)C(OC)C1)[C@H]2O (stereo partly specified)	0.0578 µM (active)	0.0571 µM (active)	0.0507 µM (active)	–	–	–	–	–
CN(C)c1nc2nonc2nc1Nc1ccccc1	> 100 µM (inactive)	> 100 µM (inactive)	> 100 µM (inactive)	–	–	–	–	–
CN1CCOC(c2ccc(Cl)cc2)O1 (stereo unspecified)	> 100 µM (inactive)	–	> 100 µM (inactive)	–	–	–	–	–
Oc1c(C(Nc2ccccn2)c2ccccc2)ccc2cccnc12 (stereo unspecified)	5.25 µM (inactive)	3.94 µM (inactive)	5.7 µM (inactive)	–	–	–	–	–
CO/C(=N\N=C(/C)C(F)(F)F)c1ccncc1	> 100 µM (inactive)	> 100 µM (inactive)	> 100 µM (inactive)	–	–	–	–	–
Cc1sc2nc3n(c(=O)c2c1C)N=CN(c1ccc(F)cc1)C3	> 100 µM (inactive)	> 100 µM (inactive)	> 100 µM (inactive)	–	–	–	–	–
C=CCn1c(-c2ccc(Cl)cc2)cs/c1=N\c1ccccc1OC	> 52.5 µM (inactive)	2.34 µM (inactive)	2.1 µM (inactive)	–	–	–	–	–
COc1cc([C@@H]2c3cc4c(cc3[C@@H](/N=C/c3ccc(C(=O)O[C@@H](C(=O)O[C@H]5C[C@@]6(O)[C@@H](OC(=O)c7ccccc7)[C@@H]7[C@]8(OC(C)=O)CO[C@@H]8C[C@H](O)[C@@]7(C)C(=O)[C@H](OC(C)=O)C(=C5C)C6(C)C)[C@@H](NC(=O)c5ccccc5)c5ccccc5)cc3)[C@H]3COC(=O)[C@H]23)OCO4)cc(OC)c1O	–	–	0.00589 µM (active)	–	–	–	–	–
CCOC(=O)/C=C/C1(CCOC(C)=O)CCCCC1	–	> 10 µM (inactive)	> 10 µM (inactive)	–	–	–	–	–
COc1ccc(OC)c(CC(C)N)c1 (stereo unspecified)	–	–	–	–	> 100 µM (inactive)	–	> 100 µM (inactive)	> 100 µM (inactive)
Nc1ncnc2c1ncn2C1OC(C(=O)OCCO)C(O)C1O (stereo unspecified)	> 100 µM (inactive)	> 100 µM (inactive)	> 100 µM (inactive)	–	–	–	–	–
CC(C)CCCC(C)[C@H]1CCC2[C@@H]3CCC4Nc5nocc5C[C@]4(C)C3CC[C@@]21C (stereo partly specified)	–	–	–	19.2 µM (inactive)	11.8 µM (inactive)	19.3 µM (inactive)	21.2 µM (inactive)	–
c1cc(CSP234N5CCN2CCN3CCN4CC5)ccc1CSP123N4CCN1CCN2CCN3CC4	> 100 µM (inactive)	> 100 µM (inactive)	> 100 µM (inactive)	–	–	–	–	–
CCOC(=O)c1c(N/C(S)=N/c2ccccc2)sc2c1CCOC2	2.08 µM (inactive)	24 µM (inactive)	50.1 µM (inactive)	–	–	–	–	–
CC1(C)C[C@H]2C3=CC[C@@H]4[C@@]5(C)CC[C@H](O)C(C)(C)[C@@H]5CC[C@@]4(C)[C@]3(C)C[C@@H](O)[C@@]23C[C@@H]1OC3=O	–	56.6 µM (inactive)	–	–	–	–	–	–
CC(=O)O[C@H]1CC[C@@]2(C)C(=CC[C@H]3C4=CC=C(C(C)=O)[C@@]4(C)CCC32)C1 (stereo partly specified)	–	–	–	28.2 µM (inactive)	30.5 µM (inactive)	28.2 µM (inactive)	44.1 µM (inactive)	–
NC(=O)C1CCCN1C(=O)C(Cc1c[nH]cn1)NC(=O)C1CCCC1 (stereo unspecified)	> 100 µM (inactive)	> 100 µM (inactive)	> 100 µM (inactive)	–	–	–	–	–
CCCCCC(O)C1C(=O)OC(C)C(O)/C=C/C=C/C=C/C=C\C=C(\C)C(O)CC(O)CC(O)CC(O)CC(O)CC(O)CC1O (stereo unspecified)	> 50 µM (inactive)	> 50 µM (inactive)	> 50 µM (inactive)	–	–	–	–	–
Cc1ccc(C2C(C(=O)C(C)(C)C)N2S(=O)(=O)c2ccc(C)cc2)cc1 (stereo unspecified)	17.7 µM (inactive)	21 µM (inactive)	19.1 µM (inactive)	–	–	–	–	–
NC(=O)CCCC(NCc1c2ccccc2nc2ccccc12)C(=O)O (stereo unspecified)	–	–	–	28.2 µM (inactive)	39.9 µM (inactive)	–	43.5 µM (inactive)	21 µM (inactive)
CSc1nc(C)c2c(n1)SCC2	> 10 µM (inactive)	> 10 µM (inactive)	> 10 µM (inactive)	–	–	–	–	–
O=Cc1ccc(-c2cccc([N+](=O)[O-])c2)s1	81.1 µM (inactive)	86.5 µM (inactive)	–	–	–	–	–	–
O=P1(c2ccccc2)C2=CCC=CC2C(c2ccccc2)N1Cc1ccccc1 (stereo unspecified)	17.4 µM (inactive)	16.3 µM (inactive)	20.9 µM (inactive)	–	–	–	–	–
CCOC(=O)c1ccc(/N=c2/[nH]c3ccccc3s/c2=N/c2ccc(C(=O)OCC)cc2)cc1	–	> 100 µM (inactive)	> 100 µM (inactive)	–	–	–	–	–
